Drawing on ChEMBL document CHEMBL1128439, “Evaluation of cis- and trans-9- and 11-hydroxy-5,6,6a,7,8,12b-hexahydrobenzo[a]phenanthridines as structurally rigid, selective D1 dopamine receptor ligands” (J Med Chem, 1995), this text covers Increase and IC50 for eleven compounds.

Activity calls are given as the source filed them. No cut-off for these calls is given here.

Test [1] is filed under the species Rattus norvegicus. In words: Effect on cAMP synthesis in rat striatal membranes as increase above basal value at a concentration of 10 uM. The format is functional. The settings on record: Striatum, Membrane.
Test [2] addresses D(2) dopamine receptor (Rattus norvegicus, UniProt P61169).
In test [3] the target is D(1A) dopamine receptor (Rattus norvegicus, UniProt P18901).
Sequence of D(1A) dopamine receptor (Rattus norvegicus, UniProt P18901) (P18901 whole entry): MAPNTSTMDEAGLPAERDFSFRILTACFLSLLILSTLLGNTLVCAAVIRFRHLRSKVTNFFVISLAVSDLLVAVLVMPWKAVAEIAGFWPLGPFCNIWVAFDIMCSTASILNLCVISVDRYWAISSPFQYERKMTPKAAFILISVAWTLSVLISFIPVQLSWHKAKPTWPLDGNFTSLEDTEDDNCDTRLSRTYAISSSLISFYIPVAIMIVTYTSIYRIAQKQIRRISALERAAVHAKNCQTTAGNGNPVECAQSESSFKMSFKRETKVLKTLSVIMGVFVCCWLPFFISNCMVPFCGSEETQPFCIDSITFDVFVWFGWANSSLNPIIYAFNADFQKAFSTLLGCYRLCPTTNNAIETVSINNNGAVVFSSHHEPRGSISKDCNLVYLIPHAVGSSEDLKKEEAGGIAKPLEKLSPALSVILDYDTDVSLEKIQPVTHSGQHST
Test [4] is filed under the species Rattus norvegicus. Kind of test: Effect on cAMP synthesis in rat striatal membranes as increase above basal value at a concentration of 10 uM; NS= no synthesis detected. Type of test: functional. The note with it: Striatum, Membrane.
In test [5] the target is D(1A) dopamine receptor (Homo sapiens, UniProt P21728). Kind of test: Affinity towards Dopamine receptor D1.
Sequence of D(1A) dopamine receptor (Homo sapiens, UniProt P21728) (P21728 whole entry): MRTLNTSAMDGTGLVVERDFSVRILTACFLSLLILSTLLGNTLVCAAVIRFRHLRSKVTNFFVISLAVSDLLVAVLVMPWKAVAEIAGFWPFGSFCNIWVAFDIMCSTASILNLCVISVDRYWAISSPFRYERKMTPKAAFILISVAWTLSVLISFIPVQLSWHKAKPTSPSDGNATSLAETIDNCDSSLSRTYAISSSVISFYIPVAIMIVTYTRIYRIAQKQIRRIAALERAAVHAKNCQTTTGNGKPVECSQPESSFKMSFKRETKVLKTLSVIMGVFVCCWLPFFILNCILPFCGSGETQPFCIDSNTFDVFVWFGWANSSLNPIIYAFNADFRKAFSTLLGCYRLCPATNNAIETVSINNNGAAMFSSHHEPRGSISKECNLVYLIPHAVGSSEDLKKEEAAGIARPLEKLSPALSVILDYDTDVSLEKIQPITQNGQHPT
The target of test [6] is D(2) dopamine receptor (Homo sapiens, UniProt P14416). In words: In vitro receptor binding affinity against Dopamine receptor D2.
Sequence of D(2) dopamine receptor (Homo sapiens, UniProt P14416) (P14416 whole entry): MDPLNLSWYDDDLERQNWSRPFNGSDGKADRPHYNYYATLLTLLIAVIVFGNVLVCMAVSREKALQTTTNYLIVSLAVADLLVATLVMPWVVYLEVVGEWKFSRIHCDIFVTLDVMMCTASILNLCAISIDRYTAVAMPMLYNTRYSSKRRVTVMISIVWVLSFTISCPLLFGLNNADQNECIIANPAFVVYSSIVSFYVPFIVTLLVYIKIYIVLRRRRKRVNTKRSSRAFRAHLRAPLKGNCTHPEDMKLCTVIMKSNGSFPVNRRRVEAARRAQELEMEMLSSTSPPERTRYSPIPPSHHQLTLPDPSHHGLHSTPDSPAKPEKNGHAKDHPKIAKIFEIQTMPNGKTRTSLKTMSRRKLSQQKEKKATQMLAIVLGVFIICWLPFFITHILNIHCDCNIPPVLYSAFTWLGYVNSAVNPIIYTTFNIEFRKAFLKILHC
The species named for test [7] is Rattus norvegicus. Kind of test: Effect on cAMP synthesis in rat striatal membranes as increase above basal value at a concentration of 10 uM in the presence of 1 uM of SCH 23390. The format is functional. The settings on record: Striatum, Membrane.

Sequence of D(2) dopamine receptor (Rattus norvegicus, UniProt P61169) (P61169 whole entry): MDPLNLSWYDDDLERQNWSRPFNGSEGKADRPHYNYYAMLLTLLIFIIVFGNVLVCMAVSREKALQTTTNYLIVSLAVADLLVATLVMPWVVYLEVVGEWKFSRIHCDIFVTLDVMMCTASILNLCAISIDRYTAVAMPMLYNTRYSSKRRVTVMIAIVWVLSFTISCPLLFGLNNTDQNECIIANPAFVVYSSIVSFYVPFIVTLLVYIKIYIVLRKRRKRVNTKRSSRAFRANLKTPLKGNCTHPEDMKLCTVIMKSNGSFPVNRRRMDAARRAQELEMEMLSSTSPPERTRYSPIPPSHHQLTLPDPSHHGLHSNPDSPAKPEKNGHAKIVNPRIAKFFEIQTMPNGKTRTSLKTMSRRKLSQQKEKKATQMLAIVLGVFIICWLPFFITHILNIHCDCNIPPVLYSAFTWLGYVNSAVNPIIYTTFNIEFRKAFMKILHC

In turn, `CN1Cc2ccccc2[C@@H]2c3cc(O)ccc3CC[C@H]21` yielded an Increase in the test listed under Rattus norvegicus [1] of 8%. Besides, the IC50 at D(2) dopamine receptor [2] was found to be 0.359 µM; at D(1A) dopamine receptor [3], 0.115 µM.
As to `CN1Cc2ccccc2[C@@H]2c3cc(O)c(Br)cc3CC[C@H]21`, the Increase entry in the test filed under Rattus norvegicus [4] was “inactive”. Moreover, the IC50 turned out to be 3 µM against D(2) dopamine receptor [2] and 0.322 µM against D(1A) dopamine receptor [3].
The like results for `CN1Cc2ccccc2[C@@H]2c3ccc(O)c(O)c3CC[C@H]21` were, in that order, “inactive”, 0.121 µM and 0.955 µM.
Regarding `NC1CCc2cc(O)c(O)cc2[C@H]1c1ccccc1` (some centres not stated), the IC50 at D(1A) dopamine receptor [5] and at D(2) dopamine receptor [6] was above 1 µM in each case.
As for `Oc1ccc2c(c1)[C@@H]1c3ccccc3CN[C@@H]1CC2`, the Increase entry in the test filed under Rattus norvegicus [4] was “inactive”. Further, the IC50 turned out to be 15.5 µM on D(2) dopamine receptor [2] and 16.7 µM on D(1A) dopamine receptor [3].
As to `CCCN1Cc2ccccc2[C@@H]2c3cc(O)ccc3CC[C@H]21`, the IC50 against D(2) dopamine receptor [2] was found to be 0.21 µM; at D(1A) dopamine receptor [3], 0.529 µM.
For the compound `Oc1ccc2c(c1)[C@H]1c3ccccc3CN[C@@H]1CC2`, the Increase in the test filed under Rattus norvegicus [1] is 15%. Further, the IC50 at D(2) dopamine receptor [2] is 0.631 µM; at D(1A) dopamine receptor [3], 0.102 µM.
For the compound `Oc1cccc2c1CC[C@H]1NCc3ccccc3[C@@H]21`, the Increase entry in the test filed under Rattus norvegicus [4] was “inactive”. For the same compound, the concentration for half-maximal inhibition (IC50) stood at 2 µM against D(2) dopamine receptor [2] and 2.9 µM at D(1A) dopamine receptor [3].
As for `Oc1cccc2c1CC[C@H]1NCc3ccccc3[C@H]21`, the IC50 against D(2) dopamine receptor [2] is 0.532 µM; on D(1A) dopamine receptor [3] it was 5.55 µM.
In the case of `Oc1cc2c(cc1O)[C@H]1c3ccccc3CN[C@@H]1CC2`, the values for the Increase in the test listed under Rattus norvegicus [7] and in the test filed under Rattus norvegicus [1] were 1% and 103%, respectively.
`NCCc1ccc(O)c(O)c1` showed an Increase in the test filed under Rattus norvegicus [1] of 100%.

As a reminder, the IC50 is the midpoint of a concentration-inhibition curve. Lower therefore signals greater potency in that assay.
